For experiment [1], the system named is HCV replicon in Huh7 cells. The experiment is described as follows: HCV replicon cell-based assay (FRET). The settings on record: Hepatitis C virus. In a few lines: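 Huh7 cells stably carrying a genotype 1b HCV replicon (IRES-neo-EMCV-IRES-NS3-NS5B) were treated with compound for 4 days at 37 °C in 0.5% DMSO final. Lysates containing 10 μM FRET peptide RET S1 were read kinetically at 340/490 nm to give NS3 protease activity, from which EC50 was derived.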

The target in experiment [2] is T1, human sputum elastase (HS) (Homo sapiens, UniProt P08246).
T1 construct: purchased Sigma
T1 sequence (P08246 30-267): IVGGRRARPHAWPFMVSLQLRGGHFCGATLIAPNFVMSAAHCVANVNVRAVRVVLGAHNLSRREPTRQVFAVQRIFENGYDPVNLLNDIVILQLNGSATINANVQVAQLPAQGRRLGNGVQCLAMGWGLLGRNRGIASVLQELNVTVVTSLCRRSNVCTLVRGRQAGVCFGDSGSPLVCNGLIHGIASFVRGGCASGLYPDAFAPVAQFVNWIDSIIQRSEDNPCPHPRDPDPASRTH
The experiment is described as follows: Specificity assay, human sputum elastase. The settings on record: 2 hr pre-incubation. Format: biochemical.

Experiment [3] addresses T2, porcine pancreatic elastase (PPE) (Sus scrofa, UniProt P00772).
T2 construct: purchased Sigma
Description: Specificity assay, porcine pancreatic elastase. The format is biochemical. The settings on record: 2 hr pre-incubation. The protocol:
(§1) The specificities of compounds of the present invention were determined against a variety of serine proteases: human sputum elastase (HS), porcine pancreatic elastase (PPE) and human pancreatic chymotrypsin and one cysteine protease: human liver cathepsin B. In all cases a 96-well plate format protocol using colorimetric p-nitroaniline (pNA) substrate specific for each enzyme was used as described previously (Patent WO 00/09543) with some modifications to the serine protease assays. All enzymes were purchased from Sigma while the substrates were from Bachem.
(§2) Each assay included a 2 hr enzyme-inhibitor pre-incubation at room temperature followed by addition of substrate and hydrolysis to ˜30% conversion as measured on a Spectramax Pro microplate reader. Compound concentrations varied from 100 to 0.4 μM depending on their potency. […]
(§3) The percentage of inhibition was calculated using the formula: [1−((UVinh−UVblank)/(UVctl−UVblank))]×100 […]

The next experiment has as its target T3, human liver cathepsin B (Homo sapiens, UniProt P07858).
T3 construct: purchased Sigma
The experiment is described as follows: Specificity assay, cathepsin B. The format is biochemical. The conditions noted are these: 2 hr pre-incubation. The protocol: as §1, §2, §3

Each structure is given as a SMILES string. Like-named read-outs stand apart in the source and are kept apart here. A value given as a limit tells only on which side of the number the result lay.

T2 sequence (P00772 27-266): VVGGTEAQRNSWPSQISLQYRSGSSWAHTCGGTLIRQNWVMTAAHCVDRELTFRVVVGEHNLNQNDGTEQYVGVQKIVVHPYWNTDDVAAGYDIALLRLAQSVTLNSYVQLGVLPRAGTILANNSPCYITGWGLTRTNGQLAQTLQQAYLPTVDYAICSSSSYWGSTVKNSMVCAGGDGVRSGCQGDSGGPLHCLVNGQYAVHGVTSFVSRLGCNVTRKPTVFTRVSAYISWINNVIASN

For the compound `C=CC1C[C@]1(NC(=O)[C@@H]1C[C@@H](Oc2cc(-c3ccccc3)nc3cc(OC)ccc23)CN1C(=O)[C@@H](NC(=O)OC(C)(C)C)C(C)(C)C)C(=O)NS(=O)(=O)C1(C)CC1` (stereo in doubt) [Compound 1, (1-{4-(7-Methoxy-2-phenylquinolin-4-yloxy)-2-[1-(1-methylcyclopropanesulfonylaminocarbonyl)-2-vinylcyclopropylcarbamoyl]pyrrolidine-1-carbonyl}-2,2-dimethylpropyl)carbamic acid tert-butyl ester], the EC50 in experiment [1] (Huh-7, 96 h, Huh7 cells, 4 days, read-out: EC50 value in the replicon assay) is 0.0139 µM; in experiment [1] (Huh-7, HCV replicon, read-out: EC50 range) it was below 0.05 µM. In addition, the figures for the IC50 (in experiment [2]; in experiment [3]; against human liver cathepsin B) were 43 µM, above 100 µM and above 100 µM, respectively.

(Values after patent publication US6878722B2, “Substituted cycloalkyl P1′ hepatitis C virus inhibitors” (Bristol-Myers Squibb Company, priority 2002, dated 2005).)
